According to PMC5454942, “The Potential of Triterpenoids from Loquat Leaves (Eriobotrya japonica) for Prevention and Treatment of Skin Disorder” (International Journal of Molecular Sciences, 2017):
Values after ≈ are worked out from the molar mass of the structure shown. Values joined by “and” are separate entries in the source; they are usually repeats but may differ in a detail not shown here. Equal values may be shown once. Read-outs that look alike come from different tables or passages of the source.

Legend:
[1] = test system: B16 melanoma cells; assay: Anti-melanogenesis assay (melanin content); format: cell-based, mouse; settings: for inhibition at 1 µg/mL: 1 μg/ml; for inhibition at 1 µg/mL / inhibition at 2.5 µg/mL / inhibition at 5 µg/mL / inhibition at 10 µg/mL / inhibition at 20 µg/mL / Inhibition rate (100% − melanin synthesis): B16 cells; for inhibition at 1 µg/mL / inhibition at 2.5 µg/mL / inhibition at 5 µg/mL / inhibition at 10 µg/mL / inhibition at 20 µg/mL: read-out: Inhibition rate (100% − melanin synthesis); for inhibition at 10 µg/mL: 10 μg/ml
Outline: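 B16 cells treated with samples in DMSO (<0.2%) for 48 h, then re-dosed in fresh medium for a further 24 h; arbutin served as positive control. Melanin content read at 405 nm and viability by MTT at 570 nm.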

[2] = Cell viability of B16 melanoma cells (MTT); settings: mouse
[3] = test system: B16 melanoma cells; assay: Cell viability of B16 melanoma cells (MTT); settings: for Inhibition rate (100% − cell viability): B16 cells
[4] = test system: mushroom tyrosinase; assay: Tyrosinase inhibition assay; format: biochemical
Description: Tyrosinase inhibition activity was evaluated by using L-tyrosine and L-DOPA as substrates, as described. Briefly, 333 μL of 2.5 mM L-tyrosine or L-DOPA solution (Sigma-Aldrich) was mixed with 600 μL of 0.1 M phosphate buffer (pH 6.8) and incubated at 25 °C. Then, 33 μL of the sample solution (dissolved in DMSO in various concentrations) and 33 μL of 1380 units/mL mushroom tyrosinase (Sigma-Aldrich) were added to the mixture. The optical density was measured at 475 nm up to the appropriate time. Kojic acid (Sigma-Aldrich) was used as the positive control; the final concentration is 3.3 μg/mL.

[5] = test system: Propionibacterium acnes; assay: Anti-bacterial assay (growth inhibition, MIC/MBC by broth microdilution); format: cell-based; settings: for inhibition at 100 µg/mL: read-out: Inhibition Rate (P. acnes growth); for activity against P. acnes (in words): at their maximum solubility
Outline: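 P. acnes NBRC 107605 grown in GAM broth 30 h at 37 °C, then used at 10^5 CFU/mL. Compounds in DMSO incubated with bacteria 30 h at 37 °C; growth read at 630 nm. MIC and MBC by broth microdilution.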

[6] = test system: RBL-2H3 cells; assay: β-hexosaminidase release from IgE-stimulated RBL-2H3 mast cells; format: cell-based, rat
Outline: (§1)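 IgE-sensitized RBL-2H3 cells (0.5 μg/mL anti-DNP IgE, 24 h) treated with sample 30 min in Tyrode buffer, then challenged 1 h with 50 μg/mL DNP-BSA. Released β-hexosaminidase measured with 2 mM p-nitrophenyl-N-acetyl-β-glucosaminide, 3 h, A405; viability by parallel MTT.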

[7] = Cell viability of RBL-2H3 cells (parallel MTT); format: cell-based, rat; settings: rat
Outline: as §1

[8] = test system: inflammation induced by 12-O-tetradecanoylphorbol-13-acetate (TPA); parameters: method as in PMID 16204964, PMID 14745168; settings: mice; cited from earlier work
[9] = test system: Epstein–Barr virus early antigen; parameters: method as in PMID 16204964, PMID 14745168; settings: cited from earlier work
[10] = test system: NHDF-Ad cells; assay: Hyaluronic acid production assay (ELISA, with MTT); format: cell-based, human; settings: 10 μg/mL, fold of control
Description: NHDF-Ad cells were seeded on 96-well plates (5 × 10^3 cells/well) for 24 h before the treatment. The medium was replaced with a mixture of 1 μL of sample solution (DMSO < 0.5% per well) and 99 μL of DMEM supplemented with 0.5% FBS. After 72 h cultivation, the amount of hyaluronic acid in the medium was measured using a QnE Hyaluronic acid ELISA kit (Biotech Trading Partners, Encinitas, CA, USA). The amount of hyaluronic acid production was quantitatively calculated from the standard curve. Cell viability was measured by the MTT method, and ascorbic acid was used as a positive control.

[11] = test system: RBL-2H3 cells; assay: Cell viability of RBL-2H3 cells (parallel MTT); format: cell-based, rat; settings: 25 μg/ml, RBL-2H3 cells
Outline: as §1

[12] = test system: NHDF cells; assay: Skin type I collagen synthesis promoting assay (ELISA, with MTT); format: cell-based, human; settings: fold of control
[13] = Mus musculus, B16 melanoma cells, read-out: IC50 (melanin synthesis)
[14] = Mus musculus, B16 melanoma cells, read-out: IC50 melanin
[15] = Rattus norvegicus, RBL-2H3, read-out: Inhibition Rate (β-hexosaminidase release)
[16] = 25 μg/ml, RBL-2H3 cells, read-out: Cell viability
[17] = Cutibacterium acnes, P. acnes, broth microdilution, read-out: MBC
[18] = Cutibacterium acnes, P. acnes, broth microdilution, read-out: MIC
[19] = Cutibacterium acnes, concentration 100 μg/mL
[20] = Rattus norvegicus, RBL-2H3, 25 μg/mL, read-out: Inhibition Rate (β-hexosaminidase release)

SMILES: CC1(C)CC[C@]2(C(=O)O)CC[C@]3(C)C(=CC[C@@H]4[C@@]5(C)C[C@@H](O)[C@H](O)C(C)(C)[C@@H]5CC[C@]43C)[C@@H]2C1 [Compound 7, Maslinic acid]
- S.I (selectivity index, CC50 value/IC50 value) ([1]; B16 melanoma cells): > 1.0
- inhibition at 1 µg/mL ([1]; Mus musculus): 2.8 ± 1.1%
- inhibition at 2.5 µg/mL ([1]; Mus musculus, 2.5 μg/ml): 12.2 ± 1.9%
- inhibition at 5 µg/mL ([1]; Mus musculus, 5 μg/ml): 47.5 ± 0.4%
- inhibition at 10 µg/mL ([1]; Mus musculus): 54.5 ± 3%
- inhibition at 20 µg/mL ([1]; Mus musculus, 20 μg/ml): 65.1 ± 0.4%
- IC50 [1, 13]: 18.5 µM
- IC50 [1, 14]: 8.7 µg/mL
- CC50 at 72 h [2]: 13.8 µg/mL and 29.3 µM
- Inhibition rate (100% − cell viability) ([3]; 1 μg/ml): 2.5 ± 2.2%
- Inhibition rate (100% − cell viability) ([3]; 2.5 μg/ml): 3.2 ± 4.8%
- Inhibition rate (100% − cell viability) ([3]; 5 μg/ml): 42.2 ± 4.0%
- Inhibition rate (100% − cell viability) ([3]; 10 μg/ml): 44.3 ± 6.4%
- Inhibition rate (100% − cell viability) ([3]; 20 μg/ml): 76.5± 3.0%
- inhibitory effect on tyrosinase (in words) ([4]; L-DOPA as substrate): no inhibitory effect
- inhibitory activity on tyrosinase (in words) ([4]; L-tyrosine as substrate, relatively high concentrations): moderate inhibitory activity
- MBC ([5]; Cutibacterium acnes): 150 µg/mL (≈ 317 µM)
- MIC ([5]; Cutibacterium acnes): 50 µg/mL (≈ 106 µM)
- inhibition at 100 µg/mL ([5]; Cutibacterium acnes): 104 ± 3.1%
- activity against P. acnes (in words) [5]: active
- IC50 ([6]; Rattus norvegicus, RBL-2H3, read-out: IC50 (β-hexosaminidase release), IgE-stimulated RBL-2H3 cells): 22.9 µM
- inhibition at 5 µg/mL [6, 15]: 9.5 ± 6.6%
- inhibition at 12.5 µg/mL [6, 15]: 58.2 ± 3%
- inhibition at 25 µg/mL [6, 15]: 66 ± 2.6%
- IC50 ([6]; read-out: IC50 (β-hexosaminidase release), IgE-stimulated RBL-2H3 cells): 22.8 µM
- viability at 25 μg/ml [7, 16]: 84.4%
- inhibitory activity against TPA-induced inflammation (in words) [8]: significant inhibitory activity
- inhibitory activity against TPA-induced Epstein–Barr virus early antigen activation (in words) [9]: significant inhibitory activity

SMILES: C[C@H]1[C@H](C)CC[C@]2(C(=O)O)CC[C@]3(C)C(=CC[C@@H]4[C@@]5(C)C[C@@H](O)[C@H](O)C(C)(C)[C@@H]5CC[C@]43C)[C@H]12 [Compound 8, Corosolic acid]
- S.I (selectivity index, CC50 value/IC50 value) ([1]; B16 melanoma cells): 1.4
- inhibition at 1 µg/mL ([1]; Mus musculus): 3.4 ± 5.1%
- inhibition at 2.5 µg/mL ([1]; Mus musculus, 2.5 μg/ml): 0.5 ± 4.1%
- inhibition at 5 µg/mL ([1]; Mus musculus, 5 μg/ml): 17.4 ± 5.5%
- inhibition at 10 µg/mL ([1]; Mus musculus): 59.8 ± 1.9%
- IC50 [1, 13]: 18.7 µM
- IC50 [1, 14]: 8.8 µg/mL
- CC50 at 72 h ([2]; B16 melanoma cells): 12.2 µg/mL and 25.8 µM
- Inhibition rate (100% − cell viability) ([3]; 1 μg/ml): 0.0 ± 3.5%
- Inhibition rate (100% − cell viability) ([3]; 2.5 μg/ml): 0.0 ± 3.8%
- Inhibition rate (100% − cell viability) ([3]; 5 μg/ml): 0.3 ± 4.0%
- Inhibition rate (100% − cell viability) ([3]; 10 μg/ml): 39.3 ± 4.7%
- Inhibition rate (100% − cell viability) ([3]; 20 μg/ml): 94.8± 0.3%
- MBC [5, 17]: 100 µg/mL (≈ 212 µM)
- MIC [5, 18]: 50 µg/mL (≈ 106 µM)
- inhibition at 100 µg/mL [5, 19]: 105.9 ± 0.4%
- activity against P. acnes (in words) [5]: active
- inhibition at 25 µg/mL [6, 20]: 36.1 ± 6.7%
- viability at 25 μg/ml [7, 16]: 80.4 ± 1.6%
- HA/CV value (hyaluronic acid %/cell viability %) [10]: 5.9

SMILES: C[C@H]1[C@H](C)CC[C@]2(C(=O)O)CC[C@]3(C)C(=CC[C@@H]4[C@@]5(C)C[C@@H](O)[C@@H](O)C(C)(C)[C@@H]5CC[C@]43C)[C@H]12 [Compound 9, 3-epicorosolic acid]
- Inhibition rate (100% − melanin synthesis) ([1]; 2.5 μg/ml): 1.0 ± 5.4%
- Inhibition rate (100% − melanin synthesis) ([1]; 5 μg/ml): 0.0 ± 5.3%
- Inhibition rate (100% − melanin synthesis) ([1]; 20 μg/ml): 7.8± 0.9%
- IC50 melanin ([1]; B16 melanoma cells): > 20.0 µg/mL
- IC50 ([1]; B16 melanoma cells, read-out: IC50 (melanin synthesis)): > 42.3 µM
- Inhibition rate (100% − cell viability) ([3]; 2.5 μg/ml): 0.0 ± 10.3%
- Inhibition rate (100% − cell viability) ([3]; 5 μg/ml): 0.0 ± 11.8%
- Inhibition rate (100% − cell viability) ([3]; 10 μg/ml): 3.4 ± 4.1%
- Inhibition rate (100% − cell viability) ([3]; 20 μg/ml): 14.8 ± 4.1%
- CC50 cell viability ([3]; B16 melanoma cells, MTT): > 20.0 µg/mL
- CC50 ([3]; read-out: CC50 (cell viability), B16 melanoma cells, MTT): > 42.3 µM
- Inhibition Rate (P. acnes growth) ([5]; concentration 100 μg/mL): – (no inhibition)
- Inhibition Rate (β-hexosaminidase release) ([6]; 1 μg/mL): 8.9 ± 5.2%
- Inhibition Rate (β-hexosaminidase release) ([6]; 5 μg/mL): 33.7 ± 6.9%
- Inhibition Rate (β-hexosaminidase release) ([6]; 12.5 μg/mL): 50.7 ± 3.2 %
- Inhibition Rate (β-hexosaminidase release) ([6]; 25 μg/mL): 54.4 ± 4.9 %
- IC50 ([6]; IgE-stimulated RBL-2H3 cells, read-out: IC50 (β-hexosaminidase release)): 14.2 µM
- Cell viability [11]: 98.0 ± 7.7%
- CP/CV value (collagen production %/cell viability %) ([12]; 1 μg/mL): 1.2
- CP/CV value (collagen production %/cell viability %) ([12]; 5 μg/mL): 1.3
- inhibitory activity against TPA-induced inflammation (in words) [8]: significant inhibitory activity
- inhibitory activity against TPA-induced Epstein–Barr virus early antigen activation (in words) [9]: significant inhibitory activity

SMILES: C[C@@H]1CC[C@]2(C(=O)O)CC[C@]3(C)C(=CC[C@@H]4[C@@]5(C)C[C@@H](O)[C@@H](O)C(C)(C)[C@@H]5CC[C@]43C)[C@@H]2[C@]1(C)O [Compound 12, euscaphic acid]
- S.I (selectivity index, CC50 value/IC50 value) ([1]; B16 melanoma cells): 0.7
- inhibition at 2.5 µg/mL ([1]; Mus musculus, 2.5 μg/ml): 0%
- inhibition at 5 µg/mL ([1]; Mus musculus, 5 μg/ml): 0%
- inhibition at 10 µg/mL ([1]; Mus musculus): 35 ± 3.6%
- inhibition at 20 µg/mL ([1]; Mus musculus, 20 μg/ml): 58.8%
- IC50 [1, 13]: 34 µM
- IC50 [1, 14]: 16.6 µg/mL
- CC50 at 72 h [2]: 12.5 µg/mL and 25.6 µM
- Inhibition rate (100% − cell viability) ([3]; 2.5 μg/ml): 0.0 ± 6.9%
- Inhibition rate (100% − cell viability) ([3]; 5 μg/ml): 0.0 ± 6.6%
- Inhibition rate (100% − cell viability) ([3]; 10 μg/ml): 44.9 ± 2.7%
- Inhibition rate (100% − cell viability) ([3]; 20 μg/ml): 91.1 ± 1.0%
- MBC [5, 17]: 50 µg/mL (≈ 102 µM)
- MIC [5, 18]: 50 µg/mL (≈ 102 µM)
- inhibition at 100 µg/mL [5, 19]: 98.5 ± 1.3%
- MIC ([5]; P. acnes, broth microdilution): 50/50 μg/mL
- activity against P. acnes (in words) [5]: active
- inhibition at 1 µg/mL ([6]; Rattus norvegicus, RBL-2H3, 1 μg/mL, read-out: Inhibition Rate (β-hexosaminidase release)): 10.4 ± 10.8%
- inhibition at 5 µg/mL ([6]; Rattus norvegicus, RBL-2H3, 5 μg/mL, read-out: Inhibition Rate (β-hexosaminidase release)): 37.7 ± 3.9%
- inhibition at 12.5 µg/mL ([6]; Rattus norvegicus, RBL-2H3, 12.5 μg/mL, read-out: Inhibition Rate (β-hexosaminidase release)): 67 ± 1.8%
- inhibition at 25 µg/mL [6, 20]: 74.5 ± 1.3%
- IC50 ([6]; Rattus norvegicus, IgE-stimulated RBL-2H3 cells, read-out: IC50 (β-hexosaminidase release)): 15.8 µM
- viability at 25 μg/ml [7]: 93.9 ± 7.3%
- inhibitory activity against TPA-induced inflammation (in words) [8]: significant inhibitory activity
- inhibitory activity against TPA-induced Epstein–Barr virus early antigen activation (in words) [9]: significant inhibitory activity
